Data on two molecules can be found in patent US10543196B2, “Oral dosage forms of bendamustine” (priority 2008, dated 2020).

Data set [1] in a line: Solubility of bendamustine hydrochloride. The data set is classed as physicochemical. An excerpt:
Therefore it is not surprising that the oral bendamustine compositions, as investigated by Preiss et al. and Weber gave rise to relatively poor bioavailability results and a large inter-individual variability.

For data set [2] the following is noted: B6D2F1-mice; cited from earlier work.
For data set [3] the following is noted: patients, oral doses of 250-350 mg, cited from earlier work.
Data set [4] is described as follows: Stability of an aqueous solution of bendamustine versus pH. The conditions noted are these: pH>5. Format: physicochemical.

Where a name gives a salt, the structure may show the parent alone.

Turning to `Cn1c(CCCC(=O)O)nc2cc(N(CCCl)CCCl)ccc21` [bendamustine hydrochloride], in data set [1], the “Solubility in a range of organic solvents” value was “slightly or very slightly soluble”; the “Solubility in ethanol and methanol” value was “good solubility”. Further, the Solubility in water entry in data set [1] (pH of 2.0) was “sparingly soluble”. In data set [2], the “Bioavailability (absorption from the gastro-intestinal tract)” value is given as “about 40%”. Also, the “Time at which maximal plasma levels were detectable after oral administration” value in data set [3] (capsules of 25 mg) is no more than 1 h.
Regarding `Cn1c(CCCC(=O)O)nc2cc(N(CCCl)CCCl)ccc21` [bendamustine, 4-[5-[bis(2-chloroethyl)amino]-1-methylbenzimidazo-2-yl]butanoic acid], the “Oral bioavailability, range” value in data set [3] (capsules) is given as 25-94%. Further, the “Hydrolytic decomposition in aqueous solution” value in data set [4] was “the decomposition proceeds rapidly”.
